Test results published in US9359338B2, “Cyclopropanecarboxamido-substitute aromatic compounds as anti-tumor agents” (Crown Bioscience Inc. (Taiwan), priority 2012, dated 2016).

What was measured:
KDR kinase (790-1356 AA) = KDR kinase (790-1356 AA) (Homo sapiens (Human), UniProt P35968); test: Inhibitory activity at KDR kinase (Lance Ultra Ulight-TK assay); assay type: biochemical
Procedure: Inhibitory Activity of Compounds at KDR Kinase
• [Experimental method]: Use Lance@Ultra Ulight™-TK assay kit from PerKinElmer to evaluate the inhibitory activity of compounds at KDR kinase. • [Instrument]: PerKinElmer's ENVISION plate reader • [Materials]: Optiplate-384 well plate (PerKinElmer), kinase buffer (50 mM Hepes pH7.5, 0.25 mM EGTA, 2 mM DTT, 0.01% Tween 20, 10 mM Mg^2+, 0.5 mM Mn^2+), KDR kinase (790-1356 AA, Crown Bioscience), KDR kinase substrate (PerKinElmer catalogue # TRF0127-M), Lance@Eu-W1024-anti-phosphotyrosine (PT66) (PerKinElmer, catalogue #AD0068), ATP (Invitrogen), DMSO (Sigma, catalogue #34869), purified water (Millipore, type: Milli-Q). • [Study conditions]: Mix KDR (final concentration: 20 nM) and compound (final DMSO: 0.5%), pre-incubate for 20 min at 30° C.; then add ATP (final concentration: 90 μM) and the substrate (final concentration […]). React for 2 hrs at 30° C. After the reaction, add antibody and reaction for 60 min at 30° C. Read the plate (615 nm, 665 nm), calculate the ratio of the value at 665 nm vs 615 nm and analyze the data. • [Samples]: Compounds in the examples and Sorafenib (positive control) • [Data Analysis]: Use CBIS data analysis software to calculate IC50 values

pERK in MDA-MB-231 cells = test: Inhibitory activity at pERK (In Cell Western, MDA-MB-231 cells); assay type: cell-based; conditions: Homo sapiens, MDA-MB-231, MDA-MB-231 cells; read-out: MDA-MB-231 pERK IC50
Procedure: Inhibitory Activity of Compounds at pERK
When the cells reach 80% confluency, collect cells by trypsinization and centrifugation at 800 rpm for 3 minutes. Resuspend cells with appropriate volume of medium and count cell numbers. Adjust cell concentration to 70000 cells/mL, and split 100 μL cell suspension per well into 96-well plates. Transfer the plates into cell culture incubator (37° C., 5% CO2) and incubate cells overnight. Discard the medium, wash with PBS once, Prepare compound serial dilutions in culture medium with total 8 compound concentrations at 3-fold serial dilutions (the final top concentration starts from 30 μM). Dispense 75 μL DMEM medium (with 0.1% BSA) and 25 μL of each test compound dilution into corresponding wells with DMSO at 0.3% final concentration. Continue incubating cells in cell culture incubator for additional 2 hrs at 37° C., 5% CO2. Discard culture medium, and wash cells once with PBS. Add 100 μL of 4% formaldehyde solution to each well and fix for 20 min. Discard the formaldehyde, then add 100 μL ice-cold 100% methanol at 4° C. for 20 min. Discard methanol, wash with PBS three times. Add to each well 100 μL of 2% BSA solution, seal for 30 min at room temperature. Discard the BSA solution, add to each well 50 μL of the 1st antibody solution (prepared with 2% BSA, 1:250 dilution), incubate at 4° C. overnight. Discard the 1^St antibody solution, wash with PBS four times. Add to each well […] the 2nd antibody solution (prepared with 1% BSA, 1:1000 dilution), incubate at room temperature for 1 hr. Discard the 2nd antibody solution, wash with PBS four times, add to each well 100 μL PI solution (1.5 μM), incubate at room temperature for 30 min. Use Acumen (TPP) to measure the fluorescence. • [Samples]: Compounds in the examples and sorafenib (positive control) • [Data Analysis]: Use CBIS data analysis software to calculate IC50 values

PLC-PRF-5 cells = test: Inhibition of proliferation of PLC-PRF-5 cells (ATPlite); assay type: cell-based; conditions: Homo sapiens, PLC-PRF-5, PLC-PRF-5 cells; read-out: PLC-PRF-5 cell proliferation IC50
Text: Inhibitory Activity of Compounds to the Proliferation of PLC-PRF-5 Cells
• [experimental Method]: Use PerKinElmer's ATPlite™ Luminescence ATP Detection Assay System to evaluate the inhibitory activity of compounds to the proliferation of PLC-PRF-5 cells. • [Instruments]: ENVISION plate reader (PerKinElmer) and centrifuge (Thermo Scientific, Sorvall ST16R) • [material]: PLC-PRF-5 cells (ATCC), 96-well plate (Nunc, #165305), DMEM medium (Gibco, #11965-092), PBS (Invitrogen, #10010023), fetal bovine serum (Gibco, #16000044), DMSO (Sigma, #D2650), ATPlite™ Luminescence ATP Detection Assay System (PerkinElmer, #6016949), purified water (Millipore, type: Milli-Q). • [Protocol]: Grow PLC-PRF-5 cells in DMEM supplemented with 10% FBS. When the cells reach 80% confluency, collect cells by trypsinization and centrifugation at 800 rpm for 3 min. Resuspend cells with appropriate volume of medium and count cell numbers. Adjust cell concentration to 50000 cells/mL, and split 160 μL cell suspension per well into 96-well plates. Transfer the plates into cell culture incubator (37° C., 5% CO2) and incubate cells for 2 hrs. Prepare compound serial dilutions in culture medium with total 8 compound concentrations at 3-fold serial dilutions (the final top concentration starts from 30 μM). Dispense 40 μL of each test compound dilution into corresponding wells with DMSO at 0.3% final concentration. Continue incubating cells in cell culture incubator for additional 96 hrs at 37° C., 5% CO2. Discard culture medium, and wash cells once with PBS. Add 50 μL cell lysis buffer per well and shake plates for 5 min at room temperature to ensure complete lysis of cells. Then add 50 μL of substrate solution and shake plates for 1 min at room temperature. Allow the plates to incubate at room temperature for 5 min, followed by recording the luminescence signals using Envision, and subsequent data analysis. • [Samples]: Compounds in the examples and Sorafenib (positive control) • [Data analysis]: Use CBIS data analysis software to calculate IC50 values

KDR kinase (790-1356 AA), sequence (P35968 790-1356): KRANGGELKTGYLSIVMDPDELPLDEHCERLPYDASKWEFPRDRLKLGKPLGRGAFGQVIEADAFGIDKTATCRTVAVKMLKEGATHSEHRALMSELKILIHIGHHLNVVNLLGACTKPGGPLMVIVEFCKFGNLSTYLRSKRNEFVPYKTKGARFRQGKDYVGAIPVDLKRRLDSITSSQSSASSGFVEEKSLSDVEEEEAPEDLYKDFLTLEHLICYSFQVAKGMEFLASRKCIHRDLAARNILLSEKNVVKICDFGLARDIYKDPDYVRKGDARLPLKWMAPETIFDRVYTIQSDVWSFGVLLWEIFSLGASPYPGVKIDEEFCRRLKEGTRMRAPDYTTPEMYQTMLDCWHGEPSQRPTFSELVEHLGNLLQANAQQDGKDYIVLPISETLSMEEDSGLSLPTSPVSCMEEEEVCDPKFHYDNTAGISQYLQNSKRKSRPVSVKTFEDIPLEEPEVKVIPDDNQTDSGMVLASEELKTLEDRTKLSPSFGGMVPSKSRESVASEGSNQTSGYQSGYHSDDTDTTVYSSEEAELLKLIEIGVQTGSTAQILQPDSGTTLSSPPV

Structure (SMILES)	IC50 (KDR kinase (790-1356 AA)) [nM]	IC50 (pERK in MDA-MB-231 cells) [nM]	IC50 (PLC-PRF-5 cells) [nM]
Cc1cc(NC(=O)Nc2cccc(C(F)(F)F)c2)ccc1Oc1cc(NC(=O)C2CC2)ncn1 [Exe. 112]	14.5	85	2000
O=C(Nc1cccc(Oc2cc(NC(=O)C3CC3)ncn2)c1)Nc1ccc(F)c(C(F)(F)F)c1 [Exe. 119]	14.9	184	18800
O=C(Nc1cccc(Oc2cc(NC(=O)C3CC3)ncn2)c1)Nc1cccc(C(F)(F)F)c1 [Exe. 120]	12	617	> 30000
O=C(Nc1cccc(Oc2cc(NC(=O)C3CC3)ncn2)c1)Nc1cccc(OC(F)(F)F)c1 [Exe. 121]	11.5	252	> 30000
CC(F)(F)c1cc(NC(=O)Nc2cccc(Oc3cc(NC(=O)C4CC4)ncn3)c2)ccc1Cl [Exe. 122]	8.7	133	22000
CN1CCC(c2cc(NC(=O)Nc3ccc(Oc4ccnc(NC(=O)C5CC5)c4)cn3)cc(C(F)(F)F)c2)CC1 [Exe. 134]	7.8	33	199
CC(F)(F)c1cc(NC(=O)Nc2ccc(Oc3ccnc(NC(=O)C4CC4)c3)cc2)ccc1F [Exe. 150]	11.5	20.4	737
Cc1ccc(NC(=O)Nc2ccc(Oc3ccnc(NC(=O)C4CC4)c3)c(F)c2)cc1C(F)(F)F [Exe. 154]	11.3	14.9	130
O=C(Nc1ccnc(C(F)(F)F)c1)Nc1ccc(Oc2ccnc(NC(=O)C3CC3)c2)c(F)c1 [Exe. 158]	8.3	81.9	1040
O=C(Nc1ccc(Oc2ccnc(NC(=O)C3CC3)c2)c(F)c1)Nc1ccc(C(F)(F)F)cc1Cl [Exe. 160]	7.8	186	4100
CN1CCN(c2cc(C(F)(F)F)cc(NC(=O)Nc3ccc(Oc4ccnc(NC(=O)C5CC5)c4)c(F)c3)n2)CC1 [Exe. 172]	14.8	74	197
CN1CCC(Nc2cc(C(F)(F)F)cc(NC(=O)Nc3ccc(Oc4ccnc(NC(=O)C5CC5)c4)c(F)c3)n2)CC1 [Exe. 173]	22.5	80	254
O=C(Nc1ccc(Oc2ccnc(NC(=O)C3CC3)c2)c(F)c1)Nc1cc(C(F)(F)F)cc(N2CCOCC2)n1 [Exe. 174]	5.4	60.6	240
CC(F)(F)c1cccc(NC(=O)Nc2ccc(Oc3ccnc(NC(=O)C4CC4)c3)c(F)c2)c1 [Exe. 180]	9.8	31.7	152
O=C(Nc1ccc(Oc2ccnc(NC(=O)C3CC3)c2)c(F)c1)Nc1ccc(C(F)(F)F)c(Cl)c1 [Exe. 185]	12.3	46.4	1480

More lines, main results first:

IC50 (KDR kinase (790-1356 AA)) [nM]	IC50 (pERK in MDA-MB-231 cells) [nM]	Structure (SMILES)	IC50 (PLC-PRF-5 cells) [nM]
12.4	300	CC(F)(F)c1cccc(NC(=O)Nc2ccc(Oc3cc(NC(=O)C4CC4)ncn3)c(F)c2)c1 [Exe. 103]	373
10.2	252	CC(F)(F)c1ccc(F)c(NC(=O)Nc2ccc(Oc3cc(NC(=O)C4CC4)ncn3)c(F)c2)c1 [Exe. 104]	100
10.4	465	CC(F)(F)c1cc(NC(=O)Nc2ccc(Oc3cc(NC(=O)C4CC4)ncn3)c(F)c2)ccc1F [Exe. 106]	850
7	41	Cc1cc(NC(=O)Nc2ccc(F)c(C(F)(F)F)c2)ccc1Oc1cc(NC(=O)C2CC2)ncn1 [Exe. 111]	2630
8.1	54	Cc1cc(NC(=O)Nc2cccc(OC(F)(F)F)c2)ccc1Oc1cc(NC(=O)C2CC2)ncn1 [Exe. 113]	781
9.8	37	Cc1cc(NC(=O)Nc2ccc(Cl)c(OC(F)(F)F)c2)ccc1Oc1cc(NC(=O)C2CC2)ncn1 [Exe. 114]	4600
9.5	300	Cc1cc(NC(=O)Nc2cc(F)cc(C(C)(F)F)c2)ccc1Oc1cc(NC(=O)C2CC2)ncn1 [Exe. 115]	1310
12	27	Cc1cc(NC(=O)Nc2ccc(Cl)c(C(C)(F)F)c2)ccc1Oc1cc(NC(=O)C2CC2)ncn1 [Exe. 117]	2930
7.4	703	CN(c1ccc(NC(=O)Nc2cccc(C(F)(F)F)c2)c(F)c1)c1cc(NC(=O)C2CC2)ncn1 [Exe. 123]	8380
14.2	105	O=C(Nc1ccc(Oc2ccnc(NC(=O)C3CC3)c2)nc1)Nc1cc(N2CCC(F)CC2)cc(C(F)(F)F)c1 [Exe. 129]	2260
5.8	208	O=C(Nc1cccc(C(F)(F)F)c1)Nc1ccc(Oc2ccnc(NC(=O)C3CC3)c2)cn1 [Exe. 135]	100
10	10.6	Cc1ccc(NC(=O)Nc2ccc(Oc3ccnc(NC(=O)C4CC4)c3)cc2)cc1C(F)(F)F [Exe. 140]	230
12.1	195	O=C(Nc1cc(F)cc(C(F)(F)F)c1)Nc1ccc(Oc2ccnc(NC(=O)C3CC3)c2)c(F)c1 [Exe. 155]	571
14.6	43	O=C(Nc1cncc(C(F)(F)F)c1)Nc1ccc(Oc2ccnc(NC(=O)C3CC3)c2)c(F)c1 [Exe. 169]	340
12.4	30.2	O=C(Nc1cc(N2CCOCC2=O)cc(C(F)(F)F)c1)Nc1ccc(Oc2ccnc(NC(=O)C3CC3)c2)c(F)c1 [Exe. 171]	1980
5.7	40	O=C(Nc1ccc(Oc2ccnc(NC(=O)C3CC3)c2)c(F)c1)Nc1cc(OC(F)(F)F)ccc1F [Exe. 176]	60
9.5	37	O=C(Nc1ccc(Oc2ccnc(NC(=O)C3CC3)c2)c(F)c1)Nc1ccc(F)c(OC(F)(F)F)c1 [Exe. 177]	690
10.5	51.5	CC(F)(F)c1cc(F)cc(NC(=O)Nc2ccc(Oc3ccnc(NC(=O)C4CC4)c3)c(F)c2)c1 [Exe. 179]	206
17.5	20	Cc1cc(Oc2ccnc(NC(=O)C3CC3)c2)ccc1NC(=O)Nc1cc(F)cc(C(F)(F)F)c1 [Exe. 192]	2910
